Measured values: patent publication US20240336577A1, “PYRAZINE COMPOUND, AND METHOD OF PREPARATION AND USE THEREOF” (SHENZHEN OLIVE BIOPHARMACEUTICALS CO., LTD, priority 2020, published 2024)

Assays:
[1] = system: SH—SY5Y cells; test: Neuroprotection against oxygen glucose deprivation (OGD), MTT assay; type: cell-based; details: 4 h OGD, FIG. 1
Procedure: Neuroprotective effect of tetramethylpyrazine (TMP) and derivatives thereof was evaluated by MTT assay. Cells were incubated, log-phase cells were collected, a concentration of a cell suspension was adjusted, an MTT-containing medium was added after chemical treatment and 4 h of incubation with OGD, incubation was conducted for 4 h, the medium in the wells was carefully removed, and 150 μl of dimethyl sulfoxide (DMSO) was added to each well, shaken at a low speed for 10 min on a shaker to fully dissolve crystals, and an absorbance value of each well was measured at an OD (absorbance) value of 490 nm of an enzyme-linked immunosorbent assay instrument (at the same time, a zero adjustment well (medium, MTT, DMSO), a control well (cells, a drug dissolution medium with the same concentration, medium, MTT, DMSO)). Data were presented as mean±SEM; n=8 per group. One-way ANOVA and multiple range test were adopted to show differences between the two groups. a, p<0.001 vs. control group; b, p<0.05 vs. OGD group; c, p<0.001 vs. OGD group.

[2] = system: db/db mice; test: Glucose and lipid metabolism in db/db mice, 56 d administration; type: in vivo; details: once/d 56 d, TMP 5.0 mg/kg, mean±SEM, n=6; for Creatinine / Total cholesterol / Triglyceride / Urea: Losartan 10 mg/kg; for Creatinine / Total cholesterol / Triglyceride / Urea / Glucose determination / High-density lipoprotein cholesterol / Low-density lipoprotein cholesterol: OLB-1/OLB-2 13.32 mg/kg; for Glycated hemoglobin / Glucose determination / High-density lipoprotein cholesterol / Low-density lipoprotein cholesterol: metformin 225 mg/kg/d; for Glycated hemoglobin: OLB-1/OLB-2 13.32 mg/kg (0.037 mmol/kg)
Procedure: Mice of a normal control group and model mice were given normal saline 10 ml/kg/d, metformin hydrochloride enteric-coated tablets 225 mg/kg/d, Losartan 10 mg/kg, TMP (5.0 mg/kg, 0.037 mmol/kg), and OLB-1 and OLB-2 (13.32 mg/kg, 0.037 mmol/kg), at a volume of 10 mL/kg, once/d, for continuous administration of 56 d, blood lipids and blood glucose related indexes were measured after blood collection. Data were presented as mean±SEM; n=6 per group. One-way ANOVA and multiple range test were adopted to show differences between the two groups. a, p<0.05 vs. db/db group; c, p<0.001 vs. db/db group.

[3] = system: db/db mice; test: Biochemical and metabolic indicators in db/db mice, 90 d administration; type: in vivo; details: once/d 90 d, Losartan 15 mg/kg/d, TMP 5.0 mg/kg, OLB-1 2.31 mg/kg, OLB-2 2.3 mg/kg, mean±SEM, n=6

Row | SMILES | death of SH—SY5Y cells caused by OGD [1] | Creatinine [2] | Total cholesterol [2] | Triglyceride [2] | Urea [2] | Glycated hemoglobin [2] | Glucose determination [2] | High-density lipoprotein cholesterol [2] | Low-density lipoprotein cholesterol [2] | Creatinine [3] | Urea [3] | Urine albumin/creatinine [3]
1 | Cc1nc(C)c(COC(=O)OCCc2ccc(O)cc2)nc1C [OLB-1] | significantly reduce the death | 48.7 ± 3.68(a) μmol/L | 8.36 ± 2.63(c) mM | 10.88 ± 0.92(b) mg/dL | 8.03 ± 0.61(c) mmol/L | 643.06 ± 61.53(c) nmol/L | 25.99 ± 4.46(c) mM | 1.81 ± 0.15(b) mM | 0.69 ± 0.04(c) mM | 48.7 ± 3.68(a) μmol/L | 8.03 ± 0.61(c) mmol/L | 438.69 ± 83.23(c) mg/g
2 | Cc1nc(C)c(CNC(=O)OCCc2ccc(O)cc2)nc1C [OLB-2] | significantly reduce the death | 46.28 ± 2.76(b) μmol/L | 7.38 ± 0.34(c) mM | 10.65 ± 0.54(b) mg/dL | 7.48 ± 0.35(c) mmol/L | 595.38 ± 52.47(c) nmol/L | 26.61 ± 1.15(c) mM | 1.87 ± 0.18(b) mM | 0.51 ± 0.03(c) mM | 46.28 ± 2.76(b) μmol/L | 7.48 ± 0.35(c) mmol/L | 477.51 ± 90.68(c) mg/g
